“And” between values parts separate entries of the source, which are not always exact repeats. Equal entries are not always repeated.

A word on the melting point: it is the temperature of the solid-liquid transition. On to `CC(C)(C)C1CCC(=O)CC1` [4-tert-butylcyclohexanone], for which the melting point was 49 °C. For `CC1(c2ccccc2)OC(C(=O)O)=CC1=O` (stereo not drawn) [acifran] the value was 176 °C; for `Sc1ccc(Cl)cc1` [4-chlorothiophenol], 50 °C. For `O=C(O)c1cccc(C(=O)c2ccccc2)c1` [3-benzoylbenzoic acid] the value was 164 °C; for `CCc1ccccc1CC` [1,2-diethylbenzene], -31 °C; for `O=C(O)/C(=C/c1ccccc1)c1ccccc1` [(2E)-2,3-Diphenylacrylic acid], 173 °C. For `C/C(=C\c1ccccc1)c1ccccc1` [(e)-alpha-methylstilbene] the value was 81 °C. In turn, `OC1CCCC1` [cyclopentanol] showed a melting point of -19 °C.

The molecule `CC(c1cc2ccccc2s1)N(O)C(N)=O` (stereo not drawn) [Zileuton] had a melting point of 145 °C.

The molecule `CCCCS` [Butane-1-thiol] came in with a melting point of -116 °C. `NS(=O)(=O)Cc1noc2ccccc12` [Zonisamide]: the melting point was 162 °C.

The molecule `CC(C)CCCC(C)CCCC(C)CCCCC(C)CCCC(C)CCCC(C)C` (stereo not drawn) [squalane] displayed a melting point of -38 °C. For `COC(=O)c1sc(-c2ccccc2)cc1N` [methyl 3-amino-5-phenylthiophene-2-carboxylate] the value was 147 °C.

On to `ClC(Cl)=C/C3C(C(=O)OCc2cccc(Oc1ccccc1)c2)C3(C)C` (stereo not drawn) [Permethrin], for which the melting point stood at 34 °C. For `CC(C)OB(OC(C)C)OC(C)C` [triisopropyl borate] the value was -59 °C; for `C/C(CCc1oc2ccc(Cl)cc2c1-c1ccc(C)o1)=N\O`, 115 °C. `CCCCOc1ccc(NC(=O)C(F)(F)C(F)(F)C(F)(F)C(F)(F)C(F)(F)C(F)(F)C(F)(F)C(F)(F)F)cc1`: the melting point turned out to be 137 °C.

Turning to `NS(=O)(=O)c1cc2c(cc1Cl)NCNS2(=O)=O` [Hydrochlorothiazide], the melting point was determined as 274 °C.

`O=C1CCOc2ccccc21` [4-chromanone] yielded a melting point of 38 °C. For `Nc1c(F)cc(Br)cc1F` [4-bromo-2,6-difluoroaniline] the value was 64 °C.

Molecule `Cc1c(C)c2c(c(C)c1O)CC[C@@](C)(CCC[C@H](C)CCC[C@H](C)CCCC(C)C)O2` came in with a melting point of 2 °C.

For `O=C=Nc1ccc(Cl)cc1Cl` [2,4-dichlorophenyl isocyanate], the melting point worked out at 59 °C.

As for `OC(O)C(Cl)(Cl)Cl` [chloral hydrate], the melting point worked out at 57 °C.

For the molecule `CS(=O)c1ccc(cc1)/C=C3c2ccc(F)cc2C(CC(=O)O)=C3C` (stereo not drawn) [sulindac], the melting point came out at 185 °C. With `OCc1ccccn1` [2-pyridinemethanol], the melting point is -6 °C. Consider `O=C(O)C1CCCCC1` [cyclohexanecarboxylic acid], for which the melting point was determined as 31.5 °C. For `Clc1ccccc1I` [1-chloro-2-iodobenzene] the value was 1 °C. The molecule `COC(=O)OC` [dimethyl carbonate] displayed a melting point of 4 °C. In the case of `Cc1ccc(Cc2ccc(C)cc2)cc1` [4,4'-dimethyldiphenylmethane], the melting point is 29 °C.

`O=[N+]([O-])c1ccc(CCl)cc1` [4-nitrobenzyl_chloride] showed a melting point of 73 °C. Consider `OB(O)c1ccc(C(F)(F)F)cc1F` [2-fluoro-4-(trifluoromethyl)benzeneboronic acid], for which the melting point was 114 °C. For `CN(C)c1ccc(N=O)cc1` [N,N-dimethyl-4-nitrosoaniline] the value was 86 °C; for `CS(=O)(=O)n1ccnc1` [1-(methylsulfonyl)imidazole], 89 °C.

Molecule `Nc1ccc(S(=O)(=O)Nc2nccs2)cc1` [sulfathiazole] registered a melting point of 202 °C.

For the molecule `O=C(O)/C(=C/c1ccccc1)c1ccc([N+](=O)[O-])cc1` [(E)-2-(4-nitrophenyl)-3-phenylpropenoic acid], the melting point is 228 °C. `COc1ccc(C#N)cc1Br` [3-bromo-4-methoxybenzonitrile] showed a melting point of 122 °C.

Consider `Nc1ccncc1N` [3,4-diaminopyridine], for which the melting point stood at 219 °C.

For `Cc1c2ccccc2cc2ccccc12` [9-methylanthracene], the melting point was 78 °C and 80 °C. As for `N#Cc1ccc(C2CCCc3cncn32)cc1` (stereo not drawn) [fadrozole], the melting point amounted to 117 °C.

Regarding `COC(=O)c1ccccc1` [methyl_benzoate], the melting point was -12 °C. Molecule `Nc1cccc(C(=O)O)c1` [3-aminobenzoic acid] yielded a melting point of 175 °C. For the molecule `CCC(=O)c1cc(F)c(O)c(F)c1` [3',5'-difluoro-4'-hydroxypropiophenone], the melting point amounted to 130 °C. For `COc1ccc(/C=C/c2ccccc2)cc1` [4-methoxystilbene] the value was 137 °C; for `Nc1ccc2cc3ccccc3cc2c1` [2-aminoanthracene], 237 °C; for `CC(C)(C)/[N+]([O-])=C/c1ccccc1` [N-tert-butyl-alpha-phenylnitrone], 73 °C. For `C#CCCC(C)C` [5-methyl-1-hexyne] the value was -124 °C; for `CC(C)(C)OC(=O)N[C@H](COCc1ccccc1)C(=O)O` [N-boc-o-benzyl-D-serine], 62 °C; for `c1ccc2c(c1)CCO2` [2,3-dihydrobenzo[b]furan], -21 °C. Regarding `CCCCCCCCCCS` [1-decanethiol], the melting point is -26 °C. For `CSCC[C@H](NC(=O)OCC1c2ccccc2-c2ccccc21)C(=O)O` [N-fmoc-L-methionine] the value was 134 °C.

`C[SiH]1O[SiH](C)O[SiH](C)O[SiH](C)O1` (stereo not drawn) [2,4,6,8-tetramethylcyclotetrasiloxane] displayed a melting point of -69 °C. For `COc1cccc(Cl)c1Cl` [2,3-dichloroanisole] the value was 32 °C; for `N#Cc1c(N)sc2c1CCCC2` [2-amino-4,5,6,7-tetrahydrobenzo[b]thiophene-3-carbonitrile], 143 °C; for `Cc1ccc(N=C=O)cc1N=C=O` [toluene-2,4-diisocyanate], 21 °C.

`Clc1cccnc1Cl` [2,3-dichloropyridine] had a melting point of 67 °C. For `O=C(Cl)c1ccccc1` [benzoyl chloride] the value was -1 °C; for `N[C@H](Cc1ccccc1)C(=O)O` [D-Phenylalanine], 274 °C. For `CCOC(=O)/C=C/C(=O)OCC` [Diethyl (2E)-but-2-enedioate] the value was 1 °C. For `N#CCc1ccc(O)cc1` [4-hydroxybenzyl_cyanide] the value was 71 °C; for `NC(=O)Cc1cccc2ccccc12` [1-naphthylacetamide], 177 °C; for `c1ccc2c(c1)Nc1ccccc1S2` [Phenothazine], 187 °C. As for `Cc1ccc(S(=O)(=O)OCCCOS(=O)(=O)c2ccc(C)cc2)cc1` [1,3-propanediol di-p-toluenesulfonate], the melting point was 91 °C. For `Cc1cc(B(O)O)ccc1Cl` [4-chloro-3-methylbenzeneboronic acid] the value was 240 °C; for `COc1ccccc1` [Anisole], -37 °C; for `CCOC(=O)c1cc(-c2ccco2)n[nH]1` [ethyl 3-(2-furyl)-1h-pyrazole-5-carboxylate], 136 °C. For `O=[N+]([O-])c1cccc(CO)c1` [3-nitrobenzyl_alcohol] the value was 32 °C; for `CCCCCCCCCCC=O` [undecanal], 0 °C and -2 °C; for `C=C(C)Cn1c(N)cc(=O)n(C)c1=O` [Uracil, 6-amino-3-methyl-1- (2-methylallyl)-], 175 °C.

`NCCCCCCO` [6-Aminohexan-1-ol] gave a melting point of 56 °C. For `CC(N)CCc1ccccc1` (stereo not drawn) [3-amino-1-phenylbutane] the value was -50 °C; for `O=C(O)c1ccccc1CO` [o-hydroxymethyl_benzoic_acid], 126 °C; for `CC(=O)C(C)(C)C` [3,3-dimethyl-2-butanone], -52 °C.

`O=C(O)[C@@H]1[C@@H]2CC[C@@H](C2)[C@@H]1C(=O)O` [(1R,2R,3S,4S)-Bicyclo[2.2.1]heptane-2,3-dicarboxylic acid] yielded a melting point of 160 °C. In turn, `C1CCc2nnnn2CC1` [1,5-pentamethylene-1h-tetrazole] returned a melting point of 60 °C. For `Cc1ncc([N+](=O)[O-])n1C` [Dimetridazole] the value was 140 °C; for `CC(C)(C)OC(=O)N1CCC[C@H](O)C1` [(S)-1-boc-3-hydroxypiperidine], 37 °C.

For `C#CC1(O)CCC2C3CCC4C(C)(C)CCCC4(C)C3CCC21C` (stereo not drawn) [4,4-dimethylpregn-20-yn-17-ol], the melting point is 157 °C. As for `O=c1[nH]c2ccccc2o1` [2-benzoxazolinone], the melting point worked out at 140 °C. Turning to `CCOC(=O)/C(C#N)=N\Nc1ccc(Cl)cc1` [Ethyl (2Z)-[(4-chlorophenyl)hydrazono](cyano)acetate], the melting point was 162 °C. For `C[SiH](C)c1ccccc1` [dimethylphenylsilane] the value was -124 °C. For `CC(C)(c1ccc(O)cc1)c1ccc(O)cc1` [bisphenol a] the value was 156 °C; for `Cc1c(N(C)C)c(=O)n(-c2ccccc2)n1C` [aminopyrine], 108 °C.

For `C[Si](C)(C)OB(O[Si](C)(C)C)O[Si](C)(C)C` [tris(trimethylsilyl) borate], the melting point was -35 °C.

In turn, `O=Cc1ccc(O)cc1` [4-hydroxybenzaldehyde] had a melting point of 118 °C. On to `OB(O)c1c(F)cc(F)c(F)c1F` [2,3,4,6-tetrafluorobenzeneboronic acid], for which the melting point turned out to be 127 °C. The molecule `O=C(O)c1ccsc1` [thiophene-3-carboxylic acid] returned a melting point of 139 °C.

`O=[N+]([O-])c1ccc(I)cc1` [1-Iodo-4-nitrobenzene] displayed a melting point of 176 °C.

With `COC(=O)c1cc2c(OC)cccc2[nH]1` [methyl 4-methoxyindole-2-carboxylate], the melting point amounted to 141 °C.

Source of the values: the Bradley open melting point set (2014).
